Experimental data from patent US7807663B2, “Therapeutic agents for diabetes” (Ajinomoto Co., Inc., priority 2003, dated 2010).

Test system: adipose cells of rats
Assay: Evaluation of the sugar transportation activity (2-[14C(U)]-deoxy-D-glucose incorporation)
Format: cell-based, Wistar rats
Settings: rat adipose cells; for A: sugar transportation activity (EC50): concentration with reinforcing effect of 50% of that of insulin (100 nM) = 100%, 30 min pre-culture at 37° C., 5 min uptake
Description: 1. Preparation of Adipose Cells of Rats:
After the decapitation and venesection of 6 male Wistar rats (body weight: 150 to 200 g), an incision was made in the abdomen of each rat to extract 6 g in total of epididymal adipose tissues. The tissues were finely cut into 2 mm×2 mm pieces in 6 ml of KRH (Krebs-Ringer Hepes, composition: 130 mM of sodium chloride, 4.7 mM of potassium chloride, 1.2 mM of potassium dihydrogenphosphate, 1.2 mM of magnesium sulfate, 1 mM of calcium chloride and 25 mM of Hepes, pH=7.6) containing 5% of BSA (bovine serum albumin). 24 mg of collagenase (type I) was added thereto and the digestion treatment was conducted for about 40 minutes to obtain about 6 ml of isolated adipose cells. The collagenase was removed by the buffer exchange. 2% BSA/KRH solution was added to the residue for the re-suspension to obtain 45 ml of an adipose cell suspension.
2. Evaluation of the Sugar Transportation Activity:
The sugar transportation activity of the compound (I) of the present invention was evaluated with reference to a method described in a literature [Annual Review of Biochemistry, Vol. 55, p. 1059 (1986)]. In the test, 200 μL of the adipose cell suspension was poured in each polystyrene test tube, 100 μL of the solution of the test substance (by dilution of 10 mg/mL dimethyl sulfoxide solution with KRH) was added thereto, and the obtained mixture was shaken and then cultured at 37° C. for 30 minutes. The sugar transportation activity was evaluated by measuring the quantity of 2-[^14C(U)]-deoxy-D-glucose incorporated per a unit time. Namely, 2-[^14C(U)]-deoxy-D-glucose was added to the adipose cell suspension after the pre-culture (the final concentration: 0.5 μCi/sample). 5 minutes after, cytochalasin B (final concentration: 10 μM) was added to the mixture to terminate the sugar transportation. After forming a dinonyl phthalate layer, the obtained mixture was centrifuged to separate the adipose cells from the buffer. The quantity of 2-[^14C(U)]-deoxy-D-glucose contained in the adipose cell layer was determined with a liquid scintillation counter to determine the quantity of the incorporated sugar. In this evaluation system, when insulin (100 nM) having the effect of reinforcing the sugar transportation was used, the effect was about 7 times as high as that obtained in the insulin-free control group.
The results of the evaluation of the sugar transportation activity obtained by using 100 μg/mL of the compound (I) of the present invention are shown in Table 3. The sugar transportation activity in Table 3 was evaluated on the basis of the reinforcing effect of insulin (100 nM). The sugar transportation activity A in Table 3 was determined in terms of the concentration (EC50: μg/mL) of a test compound, having a reinforcing effect corresponding to 50% on the basis of the reinforcing effect of insulin (100 nM) having a reinforcing effect of 100%.
The symbols in Table 3 are as follows: • No: Compound No. in Tables 1 and 2, and • A: sugar transportation activity.

Compound	A: sugar transportation activity (EC50) [µg/mL]	effect of reinforcing the sugar transportation relative to insulin-free control group (insulin 100 nM)
CCC(=O)N1[C@@H]2CCCC[C@H]2NC2=C(C(=O)NC2)[C@H]1c1ccccc1CC [Compound 94]	2.2	
CC(=O)N1[C@@H]2CCCC[C@H]2NC2=C(C(=O)NC2)[C@H]1c1ccccc1Br [Compound 114]	6	
CCC(=O)N1[C@@H]2CCCC[C@H]2NC2=C(C(=O)NC2)[C@H]1c1ccccc1OC(C)C [Compound 58]	2	
COc1ccccc1[C@@H]1C2=C(CNC2=O)N[C@@H]2CCCC[C@H]2N1C(=O)Cc1ccccc1 [Compound 13]	5	
CCOCC(=O)N1[C@@H]2CCCC[C@H]2NC2=C(C(=O)NC2)[C@H]1c1ccccc1OC(C)C [Compound 59]	2	
Cc1ccccc1[C@@H]1C2=C(CNC2=O)N[C@@H]2CCCC[C@H]2N1C(=O)C(F)(F)F [Compound 82]	6	
O=C1NCC2=C1[C@@H](c1ccccc1F)N(C(=O)C1CC1)[C@@H]1CCCC[C@H]1N2 [Compound 125]	2	
COC(=O)N1[C@@H]2CCCC[C@H]2NC2=C(C(=O)NC2)[C@H]1c1ccccc1F [Compound 127]	2	
COC(=O)N1[C@@H]2CCCC[C@H]2NC2=C(C(=O)NC2)[C@H]1c1ccccc1Cl [Compound 122]	2.4	
insulin [reference compound]		about 7 times
CCOc1ccccc1[C@@H]1C2=C(CNC2=O)N[C@@H]2CCCC[C@H]2N1C(C)=O [Compound 46]	15	
CCC(=O)N1[C@@H]2CCCC[C@H]2NC2=C(C(=O)NC2)[C@H]1c1ccccc1OC [Compound 2]	0.77	
COc1ccccc1[C@@H]1C2=C(CNC2=O)N[C@@H]2CCCC[C@H]2N1C(=O)COC(C)=O [Compound 9]	5.9	
CCOCC(=O)N1[C@@H]2CCCC[C@H]2NC2=C(C(=O)NC2)[C@H]1c1ccccc1F [Compound 126]	2	
CC(=O)N1[C@@H]2CCCC[C@H]2NC2=C(C(=O)NC2)[C@H]1c1ccccc1OC1CC1 [Compound 61]	0.9	
COc1ccccc1[C@@H]1C2=C(CNC2=O)N[C@@H]2CCCC[C@H]2N1C(=O)c1cnccn1 [Compound 36]	8.6	
CCOCC(=O)N1[C@@H]2CCCC[C@H]2NC2=C(C(=O)NC2)[C@H]1c1ccccc1Cl [Compound 120]	10.7	
COc1ccccc1[C@@H]1C2=C(CNC2=O)N[C@@H]2CCCC[C@H]2N1C(=O)CCSC [Compound 28]	2.6	
CCOCC(=O)N1[C@@H]2CCCC[C@H]2NC2=C(C(=O)NC2)[C@H]1c1ccccc1OC [Compound 11]	2.2	
COc1cc(F)ccc1[C@@H]1C2=C(CNC2=O)N[C@@H]2CCCC[C@H]2N1C(C)=O [Compound 72]	8	
CCOc1ccccc1[C@@H]1C2=C(CNC2=O)N[C@@H]2CCCC[C@H]2N1C(=O)OC [Compound 54]	1.5	
COc1cc(Cl)ccc1[C@@H]1C2=C(CNC2=O)N[C@@H]2CCCC[C@H]2N1C(C)=O [Compound 73]	6	
CCOCC(=O)N1[C@@H]2CCCC[C@H]2NC2=C(C(=O)NC2)[C@H]1c1ccccc1C [Compound 84]	4	
CC(=O)N1[C@@H]2CCCC[C@H]2NC2=C(C(=O)NC2)[C@H]1c1ccc(Br)cc1 [Compound 139]	17	

Compound	A: sugar transportation activity (EC50) [µg/mL]	effect of reinforcing the sugar transportation relative to insulin-free control group (insulin 100 nM)
CCOCC(=O)N1[C@@H]2CCCC[C@H]2NC2=C(C(=O)NC2)[C@H]1c1cccc(Cl)c1C [Compound 108]	5	
COc1ccc(F)cc1[C@@H]1C2=C(CNC2=O)N[C@@H]2CCCC[C@H]2N1C(C)=O [Compound 76]	10	
COc1ccccc1[C@@H]1C2=C(CNC2=O)N[C@@H]2CCCC[C@H]2N1C(=O)Oc1ccccc1 [Compound 40]	11	
COc1ccccc1[C@@H]1C2=C(CNC2=O)N[C@@H]2CCCC[C@H]2N1C(=O)CCCO [Compound 19]	4.8	
COCCC(=O)N1[C@@H]2CCCC[C@H]2NC2=C(C(=O)NC2)[C@H]1c1ccccc1OC [Compound 24]	3.4	
O=C1NCC2=C1[C@@H](c1ccccc1OC(F)(F)F)N(C(=O)CO)[C@@H]1CCCC[C@H]1N2 [Compound 68]	2.7	
CCOC(=O)N1[C@@H]2CCCC[C@H]2NC2=C(C(=O)NC2)[C@H]1c1ccccc1OCC [Compound 55]	7	
COC(=O)CCC(=O)N1[C@@H]2CCCC[C@H]2NC2=C(C(=O)NC2)[C@H]1c1ccccc1OC [Compound 17]	4.8	
COc1ccccc1[C@@H]1C2=C(CNC2=O)N[C@@H]2CCCC[C@H]2N1C(=O)COc1ccccc1 [Compound 12]	4.6	
CCc1ccccc1[C@@H]1C2=C(CNC2=O)N[C@@H]2CCCC[C@H]2N1C(=O)CC(=O)OC [Compound 95]	2	
CCc1ccccc1[C@@H]1C2=C(CNC2=O)N[C@@H]2CCCC[C@H]2N1C(=O)COC [Compound 97]	6	
COCC(=O)N1[C@@H]2CCCC[C@H]2NC2=C(C(=O)NC2)[C@H]1c1ccccc1Br [Compound 113]	6	
CCOc1ccccc1[C@@H]1C2=C(CNC2=O)N[C@@H]2CCCC[C@H]2N1C(=O)CC [Compound 47]	1.9	
COC(=O)CC(=O)N1[C@@H]2CCCC[C@H]2NC2=C(C(=O)NC2)[C@H]1c1ccccc1Br [Compound 111]	1.5	
CCOc1ccccc1[C@@H]1C2=C(CNC2=O)N[C@@H]2CCCC[C@H]2N1C(=O)COC [Compound 52]	3.6	
COCC(=O)N1[C@@H]2CCCC[C@H]2NC2=C(C(=O)NC2)[C@H]1c1ccccc1OC [Compound 10]	2	
COCC(=O)N1[C@@H]2CCCC[C@H]2NC2=C(C(=O)NC2)[C@H]1c1ccccc1OC(F)(F)F [Compound 69]	2	
CCc1ccccc1[C@@H]1C2=C(CNC2=O)N[C@@H]2CCCC[C@H]2N1C(=O)OC [Compound 99]	4	
COCC(=O)N1[C@@H]2CCCC[C@H]2NC2=C(C(=O)NC2)[C@H]1c1ccccc1C [Compound 87]	6	
CC=CC(=O)N1[C@@H]2CCCC[C@H]2NC2=C(C(=O)NC2)[C@H]1c1ccccc1OC [Compound 16]	1.1	
COC(=O)N1[C@@H]2CCCC[C@H]2NC2=C(C(=O)NC2)[C@H]1c1ccccc1OC [Compound 37]	6	
CCC(=O)N1[C@@H]2CCCC[C@H]2NC2=C(C(=O)NC2)[C@H]1c1ccccc1Cl [Compound 116]	3	
COc1cccc([C@@H]2C3=C(CNC3=O)N[C@@H]3CCCC[C@H]3N2C(C)=O)c1OC [Compound 77]	12	
